Assay results as given in patent US20260243775A1, “CELL LABELING AND ANNOTATION IN MICRO-ORGANOSPHERES” (Xilis, Inc., priority 2023, published 2026).

Tested on: CRC cells co-encapsulated with fibroblasts, endothelial cells, and PBMCs in MOS
Test: Live/dead staining (Calcein AM / ethidium homodimer) of EpCAM-stained MOS after drug treatment
Format: cell-based
Details: higher dose (33.3 μM) versus 1.23 μM, treated for three days, FIG. 3A
Source text: FIG. 3A includes representative images showing live MOS staining of CRC cells co-encapsulated with fibroblasts, endothelial cells, and PBMCs, stained with EpCAM and treated with vehicle or oxaliplatin for three days, followed by staining with Calcein AM (CAM) and ethidium homodimer (EtH). FIG. 3B is a graph plotting differential drug responses observed for the CRC only condition and for CRCs co-encapsulated with the non-cancer cells, measured by CTG assay.
Additional images of stained live MOS are shown in FIG. 3A, which includes representative images of live MOS containing CRC cells co-encapsulated with fibroblasts, endothelial cells, and PBMCs, where the MOS were stained with EpCAM and treated with vehicle or oxaliplatin (1.23 μM or 33.3 μM) for three days, followed by staining with Calcein AM (CAM) and ethidium homodimer (EtH). […] When MOS encapsulating only CRC cells or MOS co-encapsulating CRC cells, fibroblasts, endothelial cells, and PBMCs were treated with oxaliplatin, differential responses to the treatment were observed between the CRC-only MOS and the co-encapsulated MOS, as determined by CTG assay (FIG. 3B). However, the drug responses of the CRC-only MOS versus the CRC/non-cancer cell co-encapsulated MOS were much more similar based on live cell dye (CAM): dead cell dye (EtH) ratios from EpCAM positive (FIG. 3C).

O=C1[O][Pt]2([NH][C@@H]3CCCC[C@H]3[NH]2)[O]C1=O [oxaliplatin]
EtH (dead) and Calcein AM (live) staining, degree of killing: a greater degree of killing
